Where a name gives a salt, the structure may show the parent alone.
Experiments:
G. vaginalis = assay: Minimum inhibitory concentration (MIC) against G. vaginalis, two-fold dilutions in 96-well plates; type: cell-based; conditions: Gardnerella vaginalis; after 48 hours; tested 0.0625 to 16 mg/mL; FIG. 1A; read-out: concentration showing significant inhibition of growth of G. vaginalis (MIC)
Experimental: Formulations of creatinine hydrochloride were prepared in different concentrations to evaluate the effect on the inhibition of growth of G. vaginalis. Creatinine hydrochloride was used in varying concentrations ranging from 0.0625 mg/mL to 16 mg/mL. The minimum inhibitory concentration (MIC) for each solution was determined against G. vaginalis using two-fold dilutions and flat-bottom 96-well plates.

M. mulieris = assay: Minimum inhibitory concentration (MIC) against M. mulieris, two-fold dilutions in 96-well plates; type: cell-based, Mobiluncus mulieris; conditions: FIG. 2A
Experimental: The minimum inhibitory concentration (MIC) for each solution was determined against M. mulieris using two-fold dilutions and flat-bottom 96-well plates. […] Methods for Antimicrobial Susceptibility Testing of Anaerobic Bacteria; Approved Standard—6th Edition).

MIC (G. vaginalis): 4000 µg/mL | MIC (M. mulieris; Mobiluncus mulieris, after 48 hours, tested 0.0625 to 16 mg/mL, read-out: concentration that inhibited growth of M. mulieris (MIC)): 4000 µg/mL
Structure (SMILES): CN1CC(=O)NC1=N [creatinine hydrochloride]
concentration that still inhibited growth of M. mulieris (M. mulieris; after 72 hours): 8 mg/mL

— US12109195B2, “Compositions and methods for treatment of vaginal infections” (priority 2020, dated 2024)
